Data taken from patent US8318504B2, “MRP2 efflux pathway prognostic method” (priority 2009, dated 2012).

How the values were obtained:
[1] = target: T1, NTCP (Homo sapiens, UniProt Q14973); experiment: Uptake of TC and CLF into CHO cells stably expressing NTCP; type: cell-based; settings: 45 seconds, sodium-dependent uptake rates
T1 construct: the coding region ligated into pcDNA5/FRT; expressed in transfected cells
T1 sequence (Q14973 1-349): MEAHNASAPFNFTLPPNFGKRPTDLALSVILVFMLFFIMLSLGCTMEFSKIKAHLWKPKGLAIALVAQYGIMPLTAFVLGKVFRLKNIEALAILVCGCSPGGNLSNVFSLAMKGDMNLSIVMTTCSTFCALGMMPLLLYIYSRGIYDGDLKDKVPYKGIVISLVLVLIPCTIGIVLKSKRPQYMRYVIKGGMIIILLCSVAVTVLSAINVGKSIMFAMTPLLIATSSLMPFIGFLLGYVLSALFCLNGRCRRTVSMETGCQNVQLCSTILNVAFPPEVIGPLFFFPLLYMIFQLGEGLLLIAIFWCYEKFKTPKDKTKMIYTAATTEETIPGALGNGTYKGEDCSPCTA
Method: cDNA for human NTCP [Hagenbuch et al., J Clin Invest 1994 March; 93(3): 1326-1331] was cut with EcoRV and HindI and the coding region ligated into pcDNA5/FRT (Invitrogen, Life-Technologies, Carlsbad, Calif.). CHO FlpIn cells (Invitrogen, Life-Technologies) were transfected with the resulting construct using Lipofectamine® 2000 (Invitrogen, Life-Technologies). Stably transfected cells were selected with 550 μg Hygromycin-B in HAM-F12 medium (Gibco, Invitrogen, Life-Technologies). Transfected cells were cloned with the limiting dilution method. […] To further characterize the cloned cells, immunofluorescence localization of NTCP using a polyclonal antibody against NTCP [Kullak-Ublick G et al., Gastroenterology 1997 October; 113(4):1295-1305] was performed as described by Huber R D et al. [Am J Physiol Cell Physiol 2007 February; 292(2):[…]-[…]]. CHO cells expressing OATP1B1, OATP1B3 and OATP2B1 were described previously [Treiber et al., DMD 35:1400-1407, 2007]. For all transport experiments, cells grown on 3 cm culture dishes were cultured for 24 hours in media supplemented with 5 mmol/L sodium-butyrate to increase expression levels of transfected transporters [Palermo D P et al., J Biotechnol 1991 June; 19(1):35-47]. • Transport experiments with uptake of radioactively labeled substrates: These experiments were performed as described by Huber R D et al. […] Uptake was performed in the same buffers as for the radioactive substrates above. For visualization of CLF uptake, cells were immediately inspected with a Leica-DM-IRBE-inverted-microcope (Leica-Microsystems, Wetzlar, Germany) equipped with a Hamamatsu-ORKA-ER-camera (Hamamatsu-Photonoics, Japan). To determine uptake of CLF, cells were solubilized by the addition of 2 ml 1% (w/v) Triton-X-100. After complete solubilization, 1.5 ml was used to measure fluorescence in a Perkin-Elmer LS-5 luminescence-spectrometer set at λexe 486 nm (slit 10 nm) and λem 520 nm (slit 5 nm). Protein was determined with the bicinchoninic acid method using a kit from Interchim (Montfuçon, France). […]

[2] = substrate: CC(CCC(=O)NC(CCCCNC(=S)Nc1ccc(-c2c3ccc(=O)cc-3oc3cc(O)ccc23)c(C(=O)O)c1)C(=O)O)C1CCC2C3C(O)CC4CC(O)CCC4(C)C3CC(O)C12C; experiment: ATP-dependent transport of CLF into Sf21 membrane vesicles containing ABCC2; type: biochemical, human; settings: other: 10 μg total protein, presence or absence of 4 mmol/L ATP; 27.0 °C
Method: (§1) The production of recombinant baculovirus was as described by de Waart et al. [Liver Int 2006 April; 26(3):362-368]. ABCC3 and ABCG2-recombinant baculovirus were a kind gift from Borst [Breedveld P. et al., Cancer Res 2004 Aug. 15; 64(16):5804-5811 and Borst P. et al., J Biol Chem 2001 Dec. 7; 276(49):46400-46407.]. ABCB11-recombinant baculovirus was a kind gift from Thompson [Thompson R J et al., Gastroenterology 2002 November; 123(5):1649-1658]. Sf21 cells grown at 27° C. were infected with ABCB11, ABCC2, ABCC3 and ABCG2-cDNA containing baculovirus. Cells were harvested at 2-4 days after infection. Membrane vesicle preparation was as described by de Waart et al. [Liver Int 2006 April; 26(3):362-368].
(§2) Transport studies with membrane vesicles were performed using the rapid filtration technique as described by Heijn M et al. [Am J Physiol 1992 January; 262(1 Pt 1):C104-C110]. Radiolabel was measured with a scintillation counter. When CLF was used as a probe, filters were placed in a glass tube, 0.1% Triton-X-100 was added and the tubes vortexed. Samples were pipetted in 96-well plates (Kartell, Noviglio, Italy) and the amount CLF quantitated by measurement of fluorescence at λexe 485 nm and λcm 520 nm using a NovoStar (BMG-labtech, Offenburg, Germany). […]

[3] = substrate: CC(CCC(=O)NC(CCCCNC(=S)Nc1ccc(-c2c3ccc(=O)cc-3oc3cc(O)ccc23)c(C(=O)O)c1)C(=O)O)C1CCC2C3C(O)CC4CC(O)CCC4(C)C3CC(O)C12C; experiment: ATP-dependent transport of CLF into Sf21 membrane vesicles containing ABCC3; type: biochemical, human; settings: other: 30 μg total protein, presence or absence of 4 mmol/L ATP; 27.0 °C
Method: as §1, §2

Q: Which “Vmax for sodium-dependent transport of TC” value [1] does the source give for `C[C@H](CCC(=O)NCCS(=O)(=O)O)[C@H]1CC[C@H]2[C@@H]3[C@H](O)C[C@@H]4C[C@H](O)CC[C@]4(C)[C@H]3C[C@H](O)[C@]12C` [TC, taurocholate] here?
A: The value was 6738 pmol TC/mg protein/min.

Q: And the Km ([1]; read-out: Km for sodium-dependent transport of TC)?
A: The Km was 16 µM.

B1: ABCC2 (Homo sapiens) (protein)
chain: MLEKFCNSTFWNSSFLDSPEADLPLCFEQTVLVWIPLGYLWLLAPWQLLHVYKSRTKRSSTTKLYLAKQVFVGFLLILAAIELALVLTEDSGQATVPAVRYTNPSLYLGTWLLVLLIQYSRQWCVQKNSWFLSLFWILSILCGTFQFQTLIRTLLQGDNSNLAYSCLFFISYGFQILILIFSAFSENNESSNNPSSIASFLSSITYSWYDSIILKGYKRPLTLEDVWEVDEEMKTKTLVSKFETHMKRELQKARRALQRRQEKSSQQNSGARLPGLNKNQSQSQDALVLEDVEKKKKKSGTKKDVPKSWLMKALFKTFYMVLLKSFLLKLVNDIFTFVSPQLLKLLISFASDRDTYLWIGYLCAILLFTAALIQSFCLQCYFQLCFKLGVKVRTAIMASVYKKALTLSNLARKEYTVGETVNLMSVDAQKLMDVTNFMHMLWSSVLQIVLSIFFLWRELGPSVLAGVGVMVLVIPINAILSTKSKTIQVKNMKNKDKRLKIMNEILSGIKILKYFAWEPSFRDQVQNLRKKELKNLLAFSQLQCVVIFVFQLTPVLVSVVTFSVYVLVDSNNILDAQKAFTSITLFNILRFPLSMLPMMISSMLQASVSTERLEKYLGGDDLDTSAIRHDCNFDKAMQFSEASFTWEHDSEATVRDVNLDIMAGQLVAVIGPVGSGKSSLISAMLGEMENVHGHITIKGTTAYVPQQSWIQNGTIKDNILFGTEFNEKRYQQVLEACALLPDLEMLPGGDLAEIGEKGINLSGGQKQRISLARATYQNLDIYLLDDPLSAVDAHVGKHIFNKVLGPNGLLKGKTRLLVTHSMHFLPQVDEIVVLGNGTIVEKGSYSALLAKKGEFAKNLKTFLRHTGPEEEATVHDGSEEEDDDYGLISSVEEIPEDAASITMRRENSFRRTLSRSSRSNGRHLKSLRNSLKTRNVNSLKEDEELVKGQKLIKKEFIETGKVKFSIYLEYLQAIGLFSIFFIILAFVMNSVAFIGSNLWLSAWTSDSKIFNSTDYPASQRDMRVGVYGALGLAQGIFVFIAHFWSAFGFVHASNILHKQLLNNILRAPMRFFDTTPTGRIVNRFAGDISTVDDTLPQSLRSWITCFLGIISTLVMICMATPVFTIIVIPLGIIYVSVQMFYVSTSRQLRRLDSVTRSPIYSHFSETVSGLPVIRAFEHQQRFLKHNEVRIDTNQKCVFSWITSNRWLAIRLELVGNLTVFFSALMMVIYRDTLSGDTVGFVLSNALNITQTLNWLVRMTSEIETNIVAVERITEYTKVENEAPWVTDKRPPPDWPSKGKIQFNNYQVRYRPELDLVLRGITCDIGSMEKIGVVGRTGAGKSSLTNCLFRILEAAGGQIIIDGVDIASIGLHDLREKLTIIPQDPILFSGSLRMNLDPFNNYSDEEIWKALELAHLKSFVASLQLGLSHEVTEAGGNLSIGQRQLLCLGRALLRKSKILVLDEATAAVDLETDNLIQTTIQNEFAHCTVITIAHRLHTIMDSDKVMVLDNGKIIECGSPEELLQIPGPFYFMAKEAGIENVNSTKF
notes: made in house; host or cells: Sf21 insect cells, baculovirus; plasma membrane vesicles
Q: With B1 as the molecule, how does the Km [2] read?
A: Its Km is 3.3 ± 2.0 µM.

B2: ABCC3 (Homo sapiens) (protein)
chain: MDALCGSGELGSKFWDSNLSVHTENPDLTPCFQNSLLAWVPCIYLWVALPCYLLYLRHHCRGYIILSHLSKLKMVLGVLLWCVSWADLFYSFHGLVHGRAPAPVFFVTPLVVGVTMLLATLLIQYERLQGVQSSGVLIIFWFLCVVCAIVPFRSKILLAKAEGEISDPFRFTTFYIHFALVLSALILACFREKPPFFSAKNVDPNPYPETSAGFLSRLFFWWFTKMAIYGYRHPLEEKDLWSLKEEDRSQMVVQQLLEAWRKQEKQTARHKASAAPGKNASGEDEVLLGARPRPRKPSFLKALLATFGSSFLISACFKLIQDLLSFINPQLLSILIRFISNPMAPSWWGFLVAGLMFLCSMMQSLILQHYYHYIFVTGVKFRTGIMGVIYRKALVITNSVKRASTVGEIVNLMSVDAQRFMDLAPFLNLLWSAPLQIILAIYFLWQNLGPSVLAGVAFMVLLIPLNGAVAVKMRAFQVKQMKLKDSRIKLMSEILNGIKVLKLYAWEPSFLKQVEGIRQGELQLLRTAAYLHTTTTFTWMCSPFLVTLITLWVYVYVDPNNVLDAEKAFVSVSLFNILRLPLNMLPQLISNLTQASVSLKRIQQFLSQEELDPQSVERKTISPGYAITIHSGTFTWAQDLPPTLHSLDIQVPKGALVAVVGPVGCGKSSLVSALLGEMEKLEGKVHMKGSVAYVPQQAWIQNCTLQENVLFGKALNPKRYQQTLEACALLADLEMLPGGDQTEIGEKGINLSGGQRQRVSLARAVYSDADIFLLDDPLSAVDSHVAKHIFDHVIGPEGVLAGKTRVLVTHGISFLPQTDFIIVLADGQVSEMGPYPALLQRNGSFANFLCNYAPDEDQGHLEDSWTALEGAEDKEALLIEDTLSNHTDLTDNDPVTYVVQKQFMRQLSALSSDGEGQGRPVPRRHLGPSEKVQVTEAKADGALTQEEKAAIGTVELSVFWDYAKAVGLCTTLAICLLYVGQSAAAIGANVWLSAWTNDAMADSRQNNTSLRLGVYAALGILQGFLVMLAAMAMAAGGIQAARVLHQALLHNKIRSPQSFFDTTPSGRILNCFSKDIYVVDEVLAPVILMLLNSFFNAISTLVVIMASTPLFTVVILPLAVLYTLVQRFYAATSRQLKRLESVSRSPIYSHFSETVTGASVIRAYNRSRDFEIISDTKVDANQRSCYPYIISNRWLSIGVEFVGNCVVLFAALFAVIGRSSLNPGLVGLSVSYSLQVTFALNWMIRMMSDLESNIVAVERVKEYSKTETEAPWVVEGSRPPEGWPPRGEVEFRNYSVRYRPGLDLVLRDLSLHVHGGEKVGIVGRTGAGKSSMTLCLFRILEAAKGEIRIDGLNVADIGLHDLRSQLTIIPQDPILFSGTLRMNLDPFGSYSEEDIWWALELSHLHTFVSSQPAGLDFQCSEGGENLSVGQRQLVCLARALLRKSRILVLDEATAAIDLETDNLIQATIRTQFDTCTVLTIAHRLNTIMDYTRVLVLDKGVVAEFDSPANLIAARGIFYGMARDAGLA
notes: made in house; host or cells: Sf21 insect cells, baculovirus (gift from Borst); plasma membrane vesicles
Q: For B2, which Km [3] is on record?
A: The Km was 3.7 ± 1.0 µM.
